Assay results from PMC12549899 (Nature Communications, 2025).
pIC50: −log10 of the molar value.

Biological target: T1, DrOTOP1 G130W/E384A (Danio rerio, UniProt Q7ZWK8, E384A/G130W)
T1 construct: A previously generated codon-optimized full-length DrOTOP1[8]; (UniProt: Q7ZWK8) construct; expressed in transfected cells; host or cells: HEK-293 (CRL-1573, ATCC)
T1 sequence (Q7ZWK8 1-586 G130W/E384A): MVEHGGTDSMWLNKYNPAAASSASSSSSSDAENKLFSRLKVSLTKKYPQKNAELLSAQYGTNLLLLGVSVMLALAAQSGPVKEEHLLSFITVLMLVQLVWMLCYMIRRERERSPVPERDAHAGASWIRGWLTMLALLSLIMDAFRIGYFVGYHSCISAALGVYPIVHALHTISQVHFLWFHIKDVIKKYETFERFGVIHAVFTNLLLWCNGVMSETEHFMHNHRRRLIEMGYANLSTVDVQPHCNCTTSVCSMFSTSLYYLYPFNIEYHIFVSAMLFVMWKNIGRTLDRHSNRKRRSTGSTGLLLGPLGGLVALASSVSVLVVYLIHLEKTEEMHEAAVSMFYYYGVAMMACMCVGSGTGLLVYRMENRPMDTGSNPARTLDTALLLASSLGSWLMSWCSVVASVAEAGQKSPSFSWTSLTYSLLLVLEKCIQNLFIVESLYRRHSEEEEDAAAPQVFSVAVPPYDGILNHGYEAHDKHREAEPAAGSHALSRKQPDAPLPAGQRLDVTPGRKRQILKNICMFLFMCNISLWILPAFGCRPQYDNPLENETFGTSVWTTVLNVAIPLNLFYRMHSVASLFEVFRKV
Assay: Whole-cell patch-clamp, inhibition of acid-evoked currents, DrOTOP1 G130W/E384A
Assay type: cell-based, zebrafish (Danio rerio)
Description: Given our limited success in identifying mutations of the central site that disrupt antagonism by C2.2, we tested whether mutations of the central site in a background of G130W (the most impactful outer site mutation) might unmask contributions of this site. Thus, we generated and tested double mutants of G130W with E384A, A274W, and A388W. […] We also measured the dose-dependence of inhibition by C2.2 for both G130W/A388W and G130W/E384A (Fig. 5I, J). […] G130W was tested in parallel to confirm that 100 and 300 μM C2.2 produced dose-dependent inhibition.
HEK-293 cells (CRL-1573, ATCC) were cultured in DMEM (Thermofisher 11995073) containing 10% fetal bovine serum (Life Technology 16000044) and Penicillin-Streptomycin (100 I.U./mL) and (100 µg/mL), respectively. Cells were transfected with WT DrOTOP1 or mutant DrOTOP1 channels in 35 mm petri dishes, with ~ 500 ng DNA and 2 μL TransIT-LT1 transfection reagent (Mirus Bio Corporation, Cat # MIR2300) following the manufacturer’s protocol. All constructs were subcloned into a pcDNA3.1 vector that adds an N-terminal fusion tag consisting of an octahistidine tag followed by eGFP, a Gly-Thr-Gly-Thr linker and a 3C protease cleavage site ([…]) followed by WT DrOTOP1, WT mOTOP1, WT hOTOP1, or mutated DrOTOP1. Point mutations were generated via In-Fusion Cloning (Takara) using single-stranded DNA primers generated through IDT and sequence confirmed by Sanger sequencing (GeneWiz).
Whole-cell patch-clamp recording was performed as previously described[6],[22],[25]. Recordings were made with an Axopatch 200B amplifier, digitized with a Digidata 1322a 16-bit data acquisition system, acquired with pClamp 8.2 and analyzed with Clampfit 10 (Molecular Devices). Recordings were sampled at 5 kHz and filtered at 1 kHz. Patch Pipettes with resistance of […] were fabricated from borosilicate glass, and only recordings with a giga-Ohm seal were used in analysis. Membrane potential was held at −80 mV for the duration of recordings. At the beginning of recordings and between, cells were washed with Tyrode’s solution (see below). Once a giga-Ohm seal was reached, cells were lifted and placed in front of microcapillary tubes controlled by a Fast-Step perfusion system (Warner Instruments) so that extracellular solutions could be rapidly exchanged during each experiment.
Standard Tyrode’s solution consisted of 145 mM NaCl, 5 mM KCl, MgCl2, 2 mM CaCl2, 20 mM D-Glucose, and 10 mM HEPES (for pH 7.4). All other extracellular patch-clamp solutions contained 160 mM NMDG-Cl, 2 mM CaCl2, and the following buffers: 10 mM HEPES (for pH 7.4), 10 mM MES (for pH 6.5-5.5), 10 mM CHES for pH 10, and 10 mM HomoPIPES for (pH 5.0). pH adjusted with HCl. […]
All data are presented as mean ± SEM unless otherwise noted, and each data point represents an independent replicant. Inhibition of compounds was quantified as ((I2peak-I1)/(I2peak))*100, where I1 is the current immediately before wash-off and I2peak is the maximum recovered current (Supplementary Fig. 2). Hill coefficients were determined by the following equation: Y = Bmax*X^h/(Kd^h + X^h). Absolute IC50 was determined by the following equation: Fifty = (Top + Baseline)/2 Y = Bottom + (Top-Bottom)/(1 + ((Top-Bottom)/(Fifty-Bottom) − 1)*(AbsoluteIC50/X)^HillSlope). pH50 curves (Fig. 6G inset) were determined using the following equation: Y = Bottom + (Top-Bottom)/(1 + (EC/X)^HillSlope) where EC = EC50 control. […]

Q: `C=C(C)COc1ccccc1NC(=O)c1nc[nH]c1C` [C2.2] was tested. Which inhibition at 10 µM (10 µM, DrOTOP1 G130W/E384A, single cells or mean) did it give?
A: 3.23%

Q: What about the inhibition at 300 µM (DrOTOP1 G130W/E384A, saturated by 100 µM, no further inhibition at 300 µM, read-out: Maximal inhibition (saturation)) of the same molecule?
A: ~50%

Q: And the HillSlope (G130W/E384A, best-fit value)?
A: 2.538

Q: And the LogAbsoluteIC50 (G130W/E384A, best-fit value)?
A: 1.644

Q: What about the pIC50 (G130W/E384A, best-fit value, Top fitted, Bottom = 0, read-out: AbsoluteIC50) of the same molecule?
A: 4.36
